In patent EP2125859B1, “ESTRATRIENE DERIVATIVES AND THEIR USES AS 17BETA-HYDROXYSTEROID DEHYDROGENASE INHIBITORS” (Abbott Products GmbH, priority 2006, dated 2008):

Target: T1, recombinant human 17β-HSD1 (Homo sapiens, UniProt P14061)
T1 construct: made in house; host or cells: Sf9 insect cells (baculovirus, Bac to Bac Expression System)
T1 sequence (P14061 1-328): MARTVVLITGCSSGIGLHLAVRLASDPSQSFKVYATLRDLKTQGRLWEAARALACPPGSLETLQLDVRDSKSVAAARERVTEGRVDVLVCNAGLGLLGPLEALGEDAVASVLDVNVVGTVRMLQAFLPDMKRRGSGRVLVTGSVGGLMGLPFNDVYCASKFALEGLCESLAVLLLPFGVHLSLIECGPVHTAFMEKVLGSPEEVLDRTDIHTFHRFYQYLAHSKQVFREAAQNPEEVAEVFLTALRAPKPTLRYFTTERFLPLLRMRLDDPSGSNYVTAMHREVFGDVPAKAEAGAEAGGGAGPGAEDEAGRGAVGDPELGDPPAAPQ
Assay: Inhibition of recombinant human 17β-HSD1 (HPLC assay, conversion of 3H-estrone to estradiol)
Assay type: biochemical
Conditions: 0.5 h, 30 nM 3H-estrone, 1 mM NADPH, 30 min at RT, read-out: inhibition of rec. 17β-HSD1; for inhibition at 0.1 µM: 100 nM inhibitor; for inhibition at 1 µM: 1 µM inhibitor
Method: Inhibition of the 17β-hydroxysteroid dehydrogenase type 1 enzyme 17β-HSD1 purification: Recombinant baculovirus was generated by the "Bac to Bac Expression System" (Invitrogen). Recombinant bacmid was transfected to Sf9 insect cells using "Cellfectin Reagent" (Invitrogen). 60h later cells were harvested; the microsomal fraction was isolated as described by Puranen et al. (1994). Aliquots were stored frozen until determination of enzymatic activity.
Assay - Inhibition of recombinant human 17β-HSD1: Recombinant protein (0.1 µg/ml) was incubated in 20 mM KH2PO4 pH 7.4 with 30 nM 3H-estrone and 1 mM NADPH for 30 min at RT, in the presence of potential inhibitors at concentrations of 1 µM or 0.1 µM. Inhibitor stock solutions were prepared in DMSO. Final concentration of DMSO was adjusted to 1 % in all samples. The enzyme reaction was stopped by addition of 10 % trichloroacetic acid (final concentration). Samples were centrifuged in a microtiter plate at 4000 rpm for 10 min. Supernatants were applied to reverse phase HPLC on a Waters Symmetry C18 column, equipped with a Waters Sentry Guard column. Isocratic HPLC runs were performed at RT at a flow rate of 1 ml/min of acetonitrile:water 48:52 as running solvent. Radioactivity was monitored in the eluate by a Packard Flow Scintillation Analyzer. Total radioactivity for estrone and estradiol were determined in each sample and percent conversion of estrone to estradiol was calculated according to the following formula: [formula] [formula]
The values "% inhibition" were determined for exemplified compounds, and the results are summarized in table 4 (for 17β-HSD1). table 4: HSD 1 inhibition values in % of selected compounds of formula I

Structure (SMILES)	inhibition at 0.1 µM	inhibition at 1 µM
C[C@]12CC[C@@H]3c4ccc(O)cc4CC[C@H]3[C@@H]1[C@H](CCn1cc(CCc3ccccc3)nn1)CC2=O [Compound 1, 3-Hydroxy-15ß-[2-(4-phenethyl-[1,2,3]triazol-1-yl)-ethyl]-estra-1,3,5(10)-trien-17-one]	92%	98%
C[C@]12CC[C@@H]3c4ccc(O)cc4CC[C@H]3[C@@H]1[C@H](CCn1cc(-c3cccc(O)c3)nn1)CC2=O [Compound 2, 3-Hydroxy-15β-{2-[4-(3-hydroxy-phenyl)-[1,2,3]triazol-1-yl]-ethyl}-estra-1,3,5(10)-trien-17-one]	88%	97%
C[C@]12CC[C@@H]3c4ccc(O)cc4CC[C@H]3[C@@H]1[C@H](CCn1cc(-c3ccc(F)cc3F)nn1)CC2=O [Compound 3, 3-Hydroxy-15β-{2-[4-(2,4-difluoro-phenyl)-[1,2,3]triazol-1-yl]-ethyl}-estra-1,3,5(10)-trien-17-one]	86%	96%
C[C@]12CC[C@@H]3c4ccc(O)cc4CC[C@H]3[C@@H]1[C@H](CCn1cc(-c3cccc(C(F)(F)F)c3)nn1)CC2=O [Compound 9, 3-Hydroxy-15β-{2-[4-(3-trifluoromethyl-phenyl)-[1,2,3]triazol-1-yl]-ethyl}-estra-1,3,5(10)-trien-17-one]	84%	93%
C[C@]12CC[C@@H]3c4ccc(O)cc4CC[C@H]3[C@@H]1[C@H](CCn1cc(-c3ccc(C(F)(F)F)cc3)nn1)CC2=O [Compound 10, 3-Hydroxy-15β-{2-[4-(4-trifluoromethyl-phenyl)-[1,2,3]triazol-1-yl]-ethyl}-estra-1,3,5(10)-trien-17-one]	83%	93%
COc1ccc(-c2cn(CC[C@@H]3CC(=O)[C@@]4(C)CC[C@@H]5c6ccc(O)cc6CC[C@H]5[C@H]34)nn2)cc1 [Compound 11, 3-Hydroxy-15β-{2-[4-(4-methoxy-phenyl)-[1,2,3]triazol-1-yl]-ethyl}-estra-1,3,5(10)-trien-17-one]	75%	93%
C[C@]12CC[C@@H]3c4ccc(O)cc4CC[C@H]3[C@@H]1[C@H](CCn1cc(-c3ccc(OC(F)(F)F)cc3)nn1)CC2=O [Compound 13, 3-Hydroxy-15β-{2-[4-(4-trifluoromethoxy-phenyl)-[1,2,3]triazol-1-yl]-ethyl}-estra-1,3,5(10)-trien-17-one]	83%	92%
C[C@]12CC[C@@H]3c4ccc(O)cc4CC[C@H]3[C@@H]1[C@H](CCCn1cc(-c3cc(F)cc(F)c3)nn1)CC2=O [Compound 18, 3-Hydroxy-15ß-{3-[4-(3,5-Difluoro-phenyl)-[1,2,3]triazol-1-yl]-propyl}-estra-1,3,5(10)-trien-17-one]	64%	88%
C[C@]12CC[C@@H]3c4ccc(O)cc4CC[C@H]3[C@@H]1[C@H](CCCn1cc(CC3CCCCC3)nn1)CC2=O [Compound 21, 3-Hydroxy-15β-[3-(4-cyclohexylmethyl-[1,2,3]triazol-1-yl)-propyl]-estra-1,3,5(10)-trien-17-one]	50%	86%
C[C@]12CC[C@@H]3c4ccc(O)cc4CC[C@H]3[C@@H]1[C@H](CCCn1cc(-c3ccc(F)cc3F)nn1)CC2=O [Compound 28, 3-Hydroxy-15β-{3-[4-(2,4-difluoro-phenyl)-[1,2,3]triazol-1-yl]-propyl}-estra-1,3,5(10)-trien-17-one]	40%	83%
CC(C)CCc1cn(CCC[C@H]2CC(=O)[C@@]3(C)CC[C@@H]4c5ccc(O)cc5CC[C@H]4[C@H]23)nn1 [Compound 30, 3-hydroxy-15-[3-(4-isopentyl-[1,2,3]triazol-1-yl)-propyl]-13-methyl-6,7,8,9,11,12,13,14,15,16-decahydro-cyclopenta[a]phenanthren-17-one]	25%	82%
